Reference: ChEMBL document CHEMBL1201862, “PubChem BioAssay data set” (2004)
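Tested at 5 concentrations; 48 h exposure; 96-well plates; endpoints linearly interpolated, else capped at highest concentration. The concentration for 50% growth inhibition is given as GI50.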 Activity calls are given as the source filed them. Cut-off read from the data, not from the text of the source: active = GI50 up to about 1.1 µM and inactive = higher.

What was measured:
Assay in all cases: growth of human tumour cells (NCI), 48 h
MOLT-4 = system: MOLT-4
UO-31 = system: UO-31
NCI-H23 = system: NCI-H23
OVCAR-8 = system: OVCAR-8
OVCAR-3 = system: OVCAR-3
SF-539 = system: SF-539
LOX IMVI = system: LOX IMVI
EKVX = system: EKVX
OVCAR-4 = system: OVCAR-4
NCI-H460 = system: NCI-H460
UACC-257 = system: UACC-257
Malme-3M = system: Malme-3M
COLO 205 = system: COLO 205
U-251 = system: U-251
CCRF-CEM = system: CCRF-CEM
SNB-75 = system: SNB-75
SF-295 = system: SF-295
SK-OV-3 = system: SK-OV-3
SN12C = system: SN12C
SNB-19 = system: SNB-19

Measured: GI50

COc1ccc(-c2c3c(nc4nc(SCC(=O)c5ccc(Br)cc5)nc(N)c24)CCCC3)cc1OC
inactive: MOLT-4 > 10 µM | UO-31 > 100 µM | NCI-H23 > 100 µM | OVCAR-8 33.5 µM | OVCAR-3 > 100 µM | SF-539 > 100 µM | LOX IMVI > 100 µM | EKVX 84.1 µM | OVCAR-4 33.7 µM | NCI-H460 > 100 µM | UACC-257 > 100 µM | Malme-3M 42.6 µM | COLO 205 > 100 µM | U-251 > 100 µM | CCRF-CEM > 100 µM | SNB-75 14.9 µM | SF-295 > 100 µM | SK-OV-3 30.5 µM | SN12C > 100 µM | SNB-19 > 100 µM

CC1=NN(C(=O)c2ccc(C)cc2)C(=O)C1/N=N/c1ccccc1C(=O)O (stereo not given)
inactive: MOLT-4 > 73.8 µM | UO-31 > 100 µM | NCI-H23 > 100 µM | OVCAR-8 > 74.5 µM | OVCAR-3 > 89.1 µM | SF-539 > 100 µM | LOX IMVI > 100 µM | EKVX > 100 µM | OVCAR-4 > 100 µM | NCI-H460 > 100 µM | UACC-257 > 100 µM | Malme-3M > 100 µM | COLO 205 > 100 µM | U-251 85.7 µM | CCRF-CEM 53.7 µM | SNB-75 > 37.7 µM | SF-295 > 92.3 µM | SK-OV-3 > 100 µM | SN12C > 100 µM | SNB-19 > 100 µM
